Results on three molecules are retold here after ChEMBL document CHEMBL4406798, “A novel finding of nalbuphine-6-glucuronide, an active opiate metabolite, possessing potent antinociceptive effects: Synthesis and biological evaluation” (2019).

The subject of test [1] is Rattus norvegicus. As to the kind of experiment: Antinociceptive activity in Sprague-Dawley rat model of paw mechanical allodynia assessed as reduction in paw pressure by measuring AUC (0 to t) of paw pressure test at 50 mg/kg, ip by Randall-Selitto test. It is filed as functional, organism-based.
Test [2] concerns Rattus norvegicus. As to the kind of experiment: Antinociceptive activity in Sprague-Dawley rat model of paw mechanical allodynia assessed as maximum possible analgesia at 50 mg/kg, ip by Randall-Selitto test relative to control. It is filed as functional.
Test [3] relates to Rattus norvegicus. Nature of the test: Antinociceptive activity in Sprague-Dawley rat model of thermal-induced nociception assessed as reduction in tail-flick response by measuring AUC (0 to t) of tail flick test at 1 mg/kg administered as intra-cisternal injection measured over 2.5 hrs by cold-ethanol tail-flick test. Also on record: dose 1 mg/kg, time < 2.5 hr. It is filed as functional, organism-based. (Thermal pain tests record how soon the animal reacts.)

For test [4], the system named is Rattus norvegicus. As to the kind of experiment: Antinociceptive activity in Sprague-Dawley rat model of thermal-induced nociception assessed as duration above 50% maximum possible analgesia at 50 mg/kg, ip measured over 2.5 hrs by cold-ethanol tail-flick test. It is filed as functional.
Test [5] relates to Rattus norvegicus. As to the kind of experiment: Antinociceptive activity in Sprague-Dawley rat model of paw mechanical allodynia assessed as maximum possible analgesia at 1 mg/kg administered as intra-cisternal injection by Randall-Selitto test relative to control. It is filed as functional.
Test [6] relates to Rattus norvegicus. Nature of the test: Antinociceptive activity in Sprague-Dawley rat model of thermal-induced nociception assessed as reduction in tail-flick response by measuring AUC (0 to t) of tail flick test at 50 mg/kg, ip measured over 2.5 hrs by cold-ethanol tail-flick test. It is filed as functional, organism-based. Also on record: time < 2.5 hr, dose 50 mg/kg.
In test [7] the test system is Rattus norvegicus. Nature of the test: Antinociceptive activity in Sprague-Dawley rat model of thermal-induced nociception assessed as maximum possible analgesia at 50 mg/kg, ip measured over 2.5 hrs by cold-ethanol tail-flick test relative to control. It is filed as functional.
Test [8] relates to Rattus norvegicus. Nature of the test: Antinociceptive activity in Sprague-Dawley rat model of paw mechanical allodynia assessed as reduction in paw pressure by measuring AUC (0 to t) of paw pressure test at 1 mg/kg administered as intra-cisternal injection by Randall-Selitto test. It is filed as functional, organism-based.
The subject of test [9] is Rattus norvegicus. As to the kind of experiment: Antinociceptive activity in Sprague-Dawley rat model of thermal-induced nociception assessed as duration above 50% maximum possible analgesia at 1 mg/kg administered as intra-cisternal injection measured over 2.5 hrs by cold-ethanol tail-flick test. It is filed as functional.
Test [10] deals with Rattus norvegicus. As to the kind of experiment: Antinociceptive activity in Sprague-Dawley rat model of paw mechanical allodynia assessed as duration above 50% maximum possible analgesia at 1 mg/kg administered as intra-cisternal injection by Randall-Selitto test. It is filed as functional.
The subject of test [11] is Rattus norvegicus. Nature of the test: Antinociceptive activity in Sprague-Dawley rat model of paw mechanical allodynia assessed as duration above 50% maximum possible analgesia at 50 mg/kg, ip by Randall-Selitto test. It is filed as functional.
Test [12] has as its system Rattus norvegicus. Nature of the test: Antinociceptive activity in Sprague-Dawley rat model of thermal-induced nociception assessed as maximum possible analgesia at 1 mg/kg administered as intra-cisternal injection measured over 2.5 hrs by cold-ethanol tail-flick test relative to control. It is filed as functional.
The species named for test [13] is Rattus norvegicus. As to the kind of experiment: Ratio of AUC for test compound to AUC for nalbuphine for antinociceptive activity in Sprague-Dawley rat model by cold-ethanol tail-flick test. It is filed as functional.
The species entered for test [14] is Rattus norvegicus. As to the kind of experiment: Ratio of AUC for test compound to AUC for nalbuphine for antinociceptive activity in Sprague-Dawley rat model by Randall-Selitto test. It is filed as functional.

On to `Oc1ccc2c3c1O[C@H]1[C@@H](O)CC[C@@]4(O)[C@@H](C2)N(CC2CCC2)CC[C@]314` [NALBUPHINE], for which the AUC came out at 169 g·h with Rattus norvegicus [1], 11.3 hr.sec in the test on Rattus norvegicus [3], 16.9 hr.sec with Rattus norvegicus [6] and 176 g·h with Rattus norvegicus [8]. For the same molecule, the Activity was determined as 37.9% in the test on Rattus norvegicus [2], 48% in the test with Rattus norvegicus [5], 43.6% in the test with Rattus norvegicus [7] and 38.4% in the test with Rattus norvegicus [12]. Moreover, the Time in the test with Rattus norvegicus [4] stood at 0.15 h; in the test with Rattus norvegicus [9], 0.07 h; with Rattus norvegicus [10], 0.13 h; in the test with Rattus norvegicus [11] it was 0.1 h.

Take `O=C(O)[C@H]1O[C@@H](O[C@H]2CC[C@@]3(O)[C@H]4Cc5ccc(O)c6c5[C@@]3(CCN4CC3CCC3)[C@H]2O6)[C@H](O)[C@@H](O)[C@@H]1O`: the AUC with Rattus norvegicus [1] was determined as 158 g·h; in the test with Rattus norvegicus [3], 40.3 hr.sec; with Rattus norvegicus [6] it was 5.4 hr.sec; with Rattus norvegicus [8] it was 510 g·h. In addition, the Activity is 29.6% in the test on Rattus norvegicus [2], 95.1% with Rattus norvegicus [5], 22.7% with Rattus norvegicus [7] and 96.5% in the test with Rattus norvegicus [12]. For the same molecule, the Time with Rattus norvegicus [10] turned out to be 91 h. For the same molecule, the values for the Ratio in the test filed under Rattus norvegicus [13] and in the test listed under Rattus norvegicus [14] were 3.5 and 2.8, respectively.

For the molecule `O=C(O)[C@H]1O[C@@H](Oc2ccc3c4c2O[C@H]2[C@@H](O)CC[C@@]5(O)[C@@H](C3)N(CC3CCC3)CC[C@]425)[C@H](O)[C@@H](O)[C@@H]1O`, the AUC with Rattus norvegicus [1] was found to be 73.4 g·h; in the test on Rattus norvegicus [3] it was 5.4 hr.sec; with Rattus norvegicus [6], 5.8 hr.sec; with Rattus norvegicus [8], 23.5 g·h. Further, the Activity with Rattus norvegicus [2] turned out to be 17.7%; with Rattus norvegicus [5], 7.3%; with Rattus norvegicus [7], 19.3%; in the test on Rattus norvegicus [12] it was 22.3%. For the same molecule, in the test on Rattus norvegicus [9], the Time is 1.36 h.
